Measured values taken from patent US20190336496A1, “SELECTIVE BCL-2 INHIBITORS IN COMBINATION WITH AN ANTI-PD-1 OR AN ANTI-PD-L1 ANTIBODY FOR THE TREATMENT OF CANCERS” (AbbVie Inc., priority 2018, published 2019).

Legend:
[1] = system: MC38 tumors; assay: MC38 colon carcinoma syngeneic model, immune competent C57BL/6 mice; assay type: in vivo, mouse; conditions: MC38 in C57BL/6 mice; venetoclax 50 mg/kg/day orally 14 days; antibody 10 mg/kg IP every 4 days, 3 times; day 25
Method: BALB/c, C57BL/6, CB6F1 (C57BL/6 bred with BALB/c) and SCID mice were obtained from Charles River (Wilmington, Mass.).
MC38, mouse colon carcinoma cell line was obtained from National Cancer Institute (NCI).
Compound (I),venetoclax, was formulated in 10% ethanol+30% PEG 400+60% Phosal® 50PG. Venetoclax was administered orally once a day for 14 days at 50 mg/kg/day.
1×10^5 CT26, EMT6 or MC38 cells were subcutaneously injected with Matrigel into the flanks of BALB/c, CB6F1 or C57BL/6 mice, respectively. Seven days later, mice were randomized to treatment groups of vehicle, venetoclax, anti-PD-1/PD-L1 or the combination of venetoclax and anti-PD-1/PD-L1. Tumor volume was determined via measurements of the length (L) and width (W) of the tumor with electronic calipers and the volume was calculated according to the following equation: V=L×W2/2 using Study Director Version 2.1.11 (Studylog Systems Inc., South San Francisco). Complete response (CR) was defined as reduction in tumor volume to ≤25 mm^3 over at least 3 successive measurements.

[2] = system: CT26, MC38 and EMT6 cells; assay: In vitro sensitivity of CT26, EMT6 and MC38 cells (FIG. 1); assay type: cell-based, mouse; conditions: increasing doses, CellTiter-Glo after 72 hours
Method: FIG. 1: In vitro sensitivity of CT26, EMT6 and MC38 cells to Compound (I). […] CT26, MC38 and EMT6 cells were incubated with increasing doses of Compound (I) and viability was measured using CellTiter®-Glo (Promega) after 72 hours as described in Example 1.
Cancer Immunol Res. 5; 29-41 (2017)). Any reduction in checkpoint inhibitor-mediated tumor growth inhibition or response rates caused by the addition of venetoclax would indicate potential antagonism. The panel was composed of syngeneic models of solid tumors: CT26, MC38 (both colorectal carcinoma) and EMT6 (breast cancer). […] Likewise, only modest anti-tumor activity could be observed in these models with venetoclax alone, dosed daily at 50 mg/kg for 14 days (FIG. 3, FIG. 6, FIGS. 12A, 12B, 12C, and 12D). […] Rather, it enhanced their efficacy in certain cases.

[3] = system: COLO-668; assay: Venetoclax cell killing (CellTiter-Glo); assay type: cell-based; conditions: Homo sapiens, COLO-668, 120 h; Colorectal; 10% FBS; 5 days
Method: (§1) Solid tumor cell lines were obtained from American Type Culture Collection (ATCC, Manassas, Va.) or the National Cancer Institute (NCI) and cultured in humidified incubators at 37° C. (5% CO2) in appropriate media (specified by supplier) supplemented with 10% fetal bovine serum (FBS) or 10% human serum (HS). 24 hours after plating into 96-well or 384-well tissue culture plates, venetoclax was added to cells at various concentrations (typically 0.010 to 10 μM in half-log increments) to perform concentration-response assessments of cell killing. After 1 to 5 days of culture in the presence of venetoclax, cell viability was assessed using CellTiter-Glo® reagent (Promega). IC50 values were determined by non-linear regression analysis of the concentration response data (Table 5 and Table 6).

[4] = system: RKO; assay: Venetoclax cell killing (CellTiter-Glo); assay type: cell-based; conditions: Homo sapiens, 120 h, Colorectal, 10% FBS, 5 days
Method: as §1

[5] = system: HT29; assay: Venetoclax cell killing (CellTiter-Glo); assay type: cell-based; conditions: Homo sapiens, HT-29, 120 h; Colorectal; 10% FBS; 5 days
Method: as §1

[6] = system: MDA-MB-231; assay: Venetoclax cell killing (CellTiter-Glo); assay type: cell-based; conditions: Homo sapiens, MDA-MB-231, 72 h; Breast Cancer; 10% FBS; 3 days
Method: as §1

[7] = system: Hs 695T; assay: Venetoclax cell killing (CellTiter-Glo); assay type: cell-based; conditions: Homo sapiens, 120 h, Melanoma, 10% FBS, 5 days
Method: as §1

[8] = system: A431; assay: Venetoclax cell killing (CellTiter-Glo); assay type: cell-based; conditions: Homo sapiens, A-431, 120 h; Epidermoid carcinoma (skin); 10% FBS; 5 days
Method: as §1

[9] = system: COLO-201; assay: Venetoclax cell killing (CellTiter-Glo); assay type: cell-based; conditions: Homo sapiens, COLO 201, 120 h; Colorectal; 10% FBS; 5 days
Method: as §1

[10] = system: WM-115; assay: Venetoclax cell killing (CellTiter-Glo); assay type: cell-based; conditions: Homo sapiens, WM-115, 120 h; Melanoma; 10% FBS; 5 days
Method: as §1

[11] = system: NCI-H358; assay: Venetoclax cell killing (CellTiter-Glo); assay type: cell-based; conditions: Homo sapiens, NCI-H358, 72 h; Lung; 10% FBS; 3 days
Method: as §1

[12] = system: SJSA-1; assay: Venetoclax cell killing (CellTiter-Glo); assay type: cell-based; conditions: Homo sapiens, SJSA-1, 120 h; Osteosarcoma; 10% FBS; 5 days
Method: as §1

[13] = system: NCI-H2009; assay: Venetoclax cell killing (CellTiter-Glo); assay type: cell-based; conditions: Homo sapiens, NCI-H2009, 72 h; Lung; 10% FBS; 3 days
Method: as §1

[14] = system: SW948; assay: Venetoclax cell killing (CellTiter-Glo); assay type: cell-based; conditions: Homo sapiens, SW948, 120 h; Colorectal; 10% FBS; 5 days
Method: as §1

[15] = system: DLD-1; assay: Venetoclax cell killing (CellTiter-Glo); assay type: cell-based; conditions: Homo sapiens, DLD-1, 120 h; Colorectal; 10% FBS; 5 days
Method: as §1

[16] = system: Calu-6; assay: Venetoclax cell killing (CellTiter-Glo); assay type: cell-based; conditions: Homo sapiens, Calu-6, 72 h; Lung; 10% FBS; 3 days
Method: as §1

[17] = system: NCI-H1299; assay: Venetoclax cell killing (CellTiter-Glo); assay type: cell-based; conditions: Homo sapiens, NCI-H1299, 120 h; Lung; 10% FBS; 5 days
Method: as §1

[18] = system: SW480; assay: Venetoclax cell killing (CellTiter-Glo); assay type: cell-based; conditions: Homo sapiens, SW480, 120 h; Colorectal; 10% FBS; 5 days
Method: as §1

[19] = system: SW48; assay: Venetoclax cell killing (CellTiter-Glo); assay type: cell-based; conditions: Homo sapiens, SW48, 120 h; Colorectal; 10% FBS; 5 days
Method: as §1

[20] = system: NCI-H146; assay: Venetoclax cell killing (CellTiter-Glo); assay type: cell-based; conditions: Homo sapiens, NCI-H146, 48 h; Lung; 10% HS; 2 days
Method: as §1

[21] = system: HCT-116; assay: Venetoclax cell killing (CellTiter-Glo); assay type: cell-based; conditions: Homo sapiens, HCT-116, 120 h; Colorectal; 10% FBS; 5 days
Method: as §1

[22] = system: NCI-H510A; assay: Venetoclax cell killing (CellTiter-Glo); assay type: cell-based; conditions: Homo sapiens, 24 h, Lung, 10% FBS, 1 day
Method: as §1

[23] = system: A549; assay: Venetoclax cell killing (CellTiter-Glo); assay type: cell-based; conditions: Homo sapiens, A549, 72 h; Lung; 10% FBS; 3 days
Method: as §1

[24] = system: NCI-H69; assay: Venetoclax cell killing (CellTiter-Glo); assay type: cell-based; conditions: Homo sapiens, NCI-H69, 24 h; Lung; 10% FBS; 1 day
Method: as §1

[25] = system: Calu-1; assay: Venetoclax cell killing (CellTiter-Glo); assay type: cell-based; conditions: Homo sapiens, Calu-1, 72 h; Lung; 10% FBS; 3 days
Method: as §1

[26] = system: SKBR3; assay: Venetoclax cell killing (CellTiter-Glo); assay type: cell-based; conditions: Homo sapiens, SK-BR-3, 72 h; Breast Cancer; 10% FBS; 3 days
Method: as §1

CC1(C)CCC(CN2CCN(c3ccc(C(=O)NS(=O)(=O)c4ccc(NCC5CCOCC5)c([N+](=O)[O-])c4)c(Oc4cnc5[nH]ccc5c4)c3)CC2)=C(c2ccc(Cl)cc2)C1 [Compound (I), venetoclax]
tumor growth inhibition (TGI) [1]: 41%
in vitro sensitivity (viability) [2]: resistant
in vitro sensitivity (viability) ([2]; listed as venetoclax): None of these tumor cell lines exhibited sensitivity
IC50 [3]: > 10 µM
IC50 [4]: > 10 µM
IC50 [5]: > 10 µM
IC50 [6]: 4.83 µM
IC50 [7]: > 10 µM
IC50 [8]: 4.35 µM
IC50 [9]: 9.78 µM
IC50 [10]: 4.96 µM
IC50 [11]: > 10 µM
IC50 [12]: > 10 µM
IC50 [13]: 4.11 µM
IC50 [14]: > 10 µM
IC50 [15]: > 10 µM
IC50 [16]: > 10 µM
IC50 [17]: > 10 µM
IC50 [18]: > 10 µM
IC50 [19]: > 10 µM
IC50 [20]: 4.2 µM
IC50 [21]: > 10 µM
IC50 [22]: 1.97 µM
IC50 [23]: 3.19 µM
IC50 [24]: > 10 µM
IC50 [25]: > 10 µM
IC50 [26]: 4.42 µM
